13 compounds from ChEMBL document CHEMBL1157872, “Theoretical models of pentamidine analogs activity based on their DNA minor groove complexes” (Eur J Med Chem, 2010) can be followed below.

In assay [1] the test system is Nucleic Acid.
In assay [2] the test system is Nucleic Acid. In words: Binding affinity to d(CGCGATATCGCG)2 dodecamer assessed as change in melting temperature. The assay is classed as nucleic-acid assay.

As a reminder, the ΔTm is the change in melting temperature against a reference sample.

Take `Cn1cc(NC(=O)c2cc(NC(=O)CNC(=N)N)cn2C)cc1C(=O)NCCC(=N)N`: the ΔTm with Nucleic Acid [1] came to 31 °C. With `CCCCNC(=N)c1ccc(OCCOCCOc2ccc(C(=N)NCCCC)cc2)cc1`, the ΔTm in the assay on Nucleic Acid [1] was 3.84 °C; in the assay with Nucleic Acid [2], 3.3 °C.

Take `N=C(N)c1ccc(-c2ccc(-c3ccc(C(=N)N)cc3)o2)cc1`: the shift in melting temperature (ΔTm) with Nucleic Acid [1] came to 11.7 °C.

On to `c1cc(-c2ccc(-c3ccc(C4=NCCN4)cc3)o2)ccc1C1=NCCN1`, for which the ΔTm in the assay on Nucleic Acid [1] came out at 11.4 °C. In the case of `N=C(N)c1ccc(NCCNCCNc2ccc(C(=N)N)cc2)cc1`, the values for the ΔTm in the assay on Nucleic Acid [1] and in the assay with Nucleic Acid [2] were 5.84 °C and 5.48 °C, respectively. Turning to `CCN1CCN=C1c1ccc(-c2ccc(-c3ccc(C4=NCCN4CC)cc3)o2)cc1`, in the assay with Nucleic Acid [1], the shift in melting temperature (ΔTm) was 1.9 °C. `CCCNC(=N)c1ccc(-c2ccc(-c3ccc(C(=N)NCCC)cc3)o2)cc1`: in the assay on Nucleic Acid [1], the shift in melting temperature (ΔTm) turned out to be 13 °C. On to `N=C(N)c1ccc(OCCOCCOc2ccc(C(=N)N)cc2)cc1`, for which the ΔTm in the assay on Nucleic Acid [1] amounted to 2.92 °C; with Nucleic Acid [2], 4.2 °C. For `N=C(N)c1ccc(OCCCCCOc2ccc(C(=N)N)cc2)cc1`, in that order: 4.65 °C and 6.58 °C. Consider `CN(CCCCCN(C)c1ccc(C(=N)N)cc1)c1ccc(C(=N)N)cc1`, for which the ΔTm with Nucleic Acid [1] was 1.17 °C; with Nucleic Acid [2], 1.1 °C. For `COc1cc(C(=N)N)cc(OC)c1OCCCCCOc1c(OC)cc(C(=N)N)cc1OC`, in that order: 2.35 °C and 2.55 °C. For `N=C(NC1CCCCC1)c1ccc(OCCOCCOc2ccc(C(=N)NC3CCCCC3)cc2)cc1`, in that order: 5.08 °C and 4.3 °C.

In the case of `N=C(N)c1ccc(/N=N/Nc2ccc(C(=N)N)cc2)cc1`, in the assay with Nucleic Acid [2], the thermal shift (ΔTm) was determined as 11.9 °C.
